According to US6770748B2, “Bicyclonucleoside and oligonucleotide analogue” (priority 1997, dated 2004):

Assays:
[1] = tested on: complementary RNA 3′-r(CGCAAAAAACGA) (SEQ ID NO:12); experiment: Melting temperature (Tm) of annealing products of antisense oligonucleotide analogues with complementary RNA sense strand; format: binding; conditions: for Tm for complementary RNA: 100 mM NaCl, 10 mM sodium phosphate buffer (pH 7.2), 4 μM antisense strand, 4 μM sense strand, UV 260 nm; for ΔTm/mod. for complementary RNA: change of Tm per modified residue versus natural strand
Method: (§1) The melting temperatures (Tm's) of annealing products between antisense strands, which were the various oligonucleotide analogues synthesized in Example 2, and natural DNA- or RNA-based sense strands were measured to investigate the hybridizing ability of the oligonucleotide analogues of the present invention for complementary DNA and RNA.
(§2) Each sample solution (500 μL) with end concentrations of 100 mM NaCl, 10 mM sodium phosphate buffer (pH 7.2), 4 μM antisense strand, and 4 μM sense strand, respectively, was bathed in boiling water, and slowly cooled to room temperature over the course of 10 hours. The sample solution was gradually cooled to 5° C., kept at 5° C. for a further period of 20 minutes, and then started to be measured, with a stream of nitrogen being passed through a cell chamber of a spectrophotometer (UV-2100PC, Shimadzu) for prevention of moisture condensation. The sample temperature was raised at a rate of 0.2° C./minute until 90° C., and the ultraviolet absorption at 260 nm was measured at intervals of 0.1° C. To prevent changes in the sample concentration with increases in the temperature, the cell was provided with a closure, and a drop of a mineral oil was applied onto the surface of the sample solution during measurement.

[2] = tested on: complementary DNA 3′-CGCAAAAAACGA-5′ (SEQ ID NO:12); experiment: Melting temperature (Tm) of annealing products of antisense oligonucleotide analogues with complementary DNA sense strand; format: binding; conditions: for Tm for complementary DNA: 100 mM NaCl, 10 mM sodium phosphate buffer (pH 7.2), 4 μM antisense strand, 4 μM sense strand, UV 260 nm; for ΔTm/mod. for complementary DNA: change of Tm per modified residue versus natural strand
Method: as §1, §2

[3] = target: snake venom phosphodiesterase (Crotalus adamanteus, UniProt J3SEZ3)
[4] = total increase versus natural strand

Sequence of snake venom phosphodiesterase (J3SEZ3 24-851 limits assumed): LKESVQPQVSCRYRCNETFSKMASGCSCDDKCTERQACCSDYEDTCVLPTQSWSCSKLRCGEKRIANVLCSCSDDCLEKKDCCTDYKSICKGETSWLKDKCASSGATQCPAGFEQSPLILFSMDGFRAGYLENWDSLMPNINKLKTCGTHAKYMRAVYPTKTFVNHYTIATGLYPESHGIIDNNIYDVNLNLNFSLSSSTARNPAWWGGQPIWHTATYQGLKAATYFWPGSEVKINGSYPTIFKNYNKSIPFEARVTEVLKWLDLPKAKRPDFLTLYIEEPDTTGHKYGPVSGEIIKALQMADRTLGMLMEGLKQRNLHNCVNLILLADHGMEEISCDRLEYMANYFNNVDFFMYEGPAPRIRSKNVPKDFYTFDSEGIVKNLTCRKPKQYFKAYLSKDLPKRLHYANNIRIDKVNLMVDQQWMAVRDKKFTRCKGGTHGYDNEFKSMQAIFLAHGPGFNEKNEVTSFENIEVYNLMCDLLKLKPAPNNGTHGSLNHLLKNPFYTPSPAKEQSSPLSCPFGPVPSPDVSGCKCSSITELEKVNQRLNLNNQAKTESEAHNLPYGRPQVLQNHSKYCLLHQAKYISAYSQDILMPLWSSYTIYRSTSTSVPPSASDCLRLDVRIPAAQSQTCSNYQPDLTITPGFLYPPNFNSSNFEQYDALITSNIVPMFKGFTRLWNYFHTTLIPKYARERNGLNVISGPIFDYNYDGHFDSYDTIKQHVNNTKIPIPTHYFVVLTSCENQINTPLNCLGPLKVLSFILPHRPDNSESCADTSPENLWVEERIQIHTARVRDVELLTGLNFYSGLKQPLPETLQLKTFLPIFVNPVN

| Compound | Tm for complementary RNA [1] | Tm for complementary DNA [2] | ΔTm/mod. for complementary RNA [1] | ΔTm/mod. for complementary DNA [2] | other results |
| --- | --- | --- | --- | --- | --- |
| CC(C)(C)[Si](OC[C@@]12CO[C@@H]([C@H](n3cnc4c(NCc5ccccc5)ncnc43)O1)[C@@H]2OCc1ccccc1)(c1ccccc1)c1ccccc1 |  |  |  |  | melting point: 80 to 81 °C |
| CC(C)C(=O)Nc1nc2c(ncn2[C@@H]2O[C@@]3(CO[Si](c4ccccc4)(c4ccccc4)C(C)(C)C)CO[C@@H]2[C@@H]3OCc2ccccc2)c(=O)[nH]1 |  |  |  |  | melting point: 99 to 100 °C |
| 5′-GCGTTTTTTTGCT-3′ [natural, reference compound] | 45 °C | 47 °C |  |  |  |
| 5′-GCGTTTTTXGCT-3′ [Compound T5X] | 51 °C | 52 °C | +6 °C | +4 °C |  |
| 5′-GCGTTTTXXGCT-3′ [Compound T4X2] | 55 °C | 54 °C | +5 °C | +3.5 °C |  |
| 5′-GCGTTTXTTGCT-3′ [Compound T3XT2] | 50 °C | 49 °C | +5 °C | +2 °C |  |
| 5′-GCGTTXTTTGCT-3′ [Compound T2XT3] | 49 °C | 49 °C | +4 °C | +2 °C |  |
| 5′-GCGTTXXTTGCT-3′ [Compound T2X2T2] | 53 °C | 49 °C | +4 °C | +1 °C |  |
| 5′-GCGXTTTTTGCT-3′ [XT6] | 49 °C | 50 °C | +4 °C | +3 °C |  |
| 5′-GCGXXTTTTGCT-3′ [Compound X2T4] | 53 °C | 51 °C | +4 °C | +2 °C |  |
| 5′-GCGXXXXXXGCT-3′ [Compound X6] | 71 °C | 58 °C | +4.3 °C | +1.8 °C | increase in Tm per modified residue, complementary RNA ([1]; per modified residue versus natural strand): 4 degrees; increase in Tm over the natural strand, complementary RNA [1, 4]: more than 25 degrees; rise in Tm as compared with the natural strand, complementary DNA oligomer [2, 4]: 11 degrees |
| 5′-GTTTTTTTTTTTC-3′ [natural type] |  |  |  |  | time until ultraviolet absorption reached a plateau after initiation of the enzyme reaction [3]: about 30 minutes; t½ (half-life) ([3]; pH 8.6): 4.33 min |
| Cc1cn([C@@H]2O[C@@]3(CO)CO[C@@H]2[C@@H]3O)c(=O)[nH]c1=O [Compound 39a, 2′-O,4′-C-methylene-5-methyluridine] |  |  |  |  | melting point: 194 to 195 °C |
